# Reference: paper PMC12396409, “Screening and hit evaluation of a microbial metabolite library against the pathogenic Plasmodium falciparum and Toxoplasma gondii parasites” (International Journal for Parasitology: Drugs and Drug …, 2025)
# Like-named read-outs stand apart in the source and are kept apart here.
# Columns and labels:
# [1] = tested on: P. falciparum 3D7 parasites; assay: P. falciparum growth inhibition assay, 2-cycle (120 h treatment), delayed-death screen and dose-response; assay type: cell-based, Plasmodium falciparum; settings: for activity at 2 µg/mL: Plasmodium falciparum
# [2] = tested on: P. falciparum 3D7 parasites; assay: P. falciparum growth inhibition assay, 1-cycle (72 h treatment), SYBR DNA staining (library screen at 2 μg/mL and dose-response); assay type: cell-based, Plasmodium falciparum
# [3] = tested on: T. gondii RH strain (RH-Tub-eYFP) tachyzoites; assay: microbe, parasite or virus in culture; assay type: cell-based, Toxoplasma gondii; settings: for percent parasite growth at 2 µg/mL: Toxoplasma gondii
# [4] = library screen at 2 μg/mL, 72 h, % growth, replicate 1
# [5] = library screen at 2 μg/mL, 72 h, % growth, replicate 2
# [6] = 3D7, P. falciparum, 120 h, screen at 2 μg/mL, replicate 1, read-out: Pf_120h_%Growth_Rep1
# [7] = 3D7, P. falciparum, 120 h, screen at 2 μg/mL, replicate 2, read-out: Pf_120h_%Growth_Rep2
# [8] = Plasmodium falciparum, 3D7, P. falciparum, 72 h, screen at 2 μg/mL, replicate 1, read-out: Pf_72h_%Growth_Rep1
# [9] = Plasmodium falciparum, 3D7, P. falciparum, 72 h, screen at 2 μg/mL, replicate 2, read-out: Pf_72h_%Growth_Rep2
smiles,measurement,setting,value
CC[C@H]1OC(=O)[C@H](C)[C@@H](O[C@H]2C[C@@](C)(OC)[C@@H](O)[C@H](C)O2)[C@H](C)[C@@H](O[C@@H]2O[C@H](C)C[C@H](N(C)C)[C@H]2O)[C@](C)(O)C[C@@H](C)C(=O)[C@H](C)[C@@H](O)[C@H]1C [Erythromycin B],Pf_120h_%Growth_Rep1,"[1]; library screen at 2 μg/mL, 120 h, % growth, replicate 1",64.18%
same,Pf_120h_%Growth_Rep2,"[1]; library screen at 2 μg/mL, 120 h, % growth, replicate 2",47.52%
same,Pf_72h_%Growth_Rep1,[2]; [4],77.77%
same,Pf_72h_%Growth_Rep2,[2]; [5],67.71%
same,Tg_72h_%Growth_Rep1,[3]; [4],53.14%
same,Tg_72h_%Growth_Rep2,[3]; [5],48.82%
C[C@H]1O[C@H](O[C@H]2[C@H](O)[C@@H](O)[C@@H](O[C@H]3[C@H](O)[C@@H](O)C(O)O[C@@H]3CO)O[C@@H]2CO)[C@H](O)[C@@H](O)[C@@H]1N[C@H]1C=C(CO)[C@@H](O)[C@H](O)[C@H]1O (stereo partly shown) [Acarbose],activity at 2 µg/mL,"[1]; 3D7, library screen at 2 μg/mL, 120 h, % growth, replicate 1, read-out: Pf_120h_%Growth_Rep1",85.5%
same,activity at 2 µg/mL,"[1]; 3D7, library screen at 2 μg/mL, 120 h, % growth, replicate 2, read-out: Pf_120h_%Growth_Rep2",82.2%
same,activity at 2 µg/mL,"[2]; Plasmodium falciparum, 3D7, library screen at 2 μg/mL, 72 h, % growth, replicate 1, read-out: Pf_72h_%Growth_Rep1",83.3%
same,activity at 2 µg/mL,"[2]; Plasmodium falciparum, 3D7, library screen at 2 μg/mL, 72 h, % growth, replicate 2, read-out: Pf_72h_%Growth_Rep2",87.2%
same,percent parasite growth at 2 µg/mL,"[3]; 72 h, library screen at 2 μg/mL, 72 h, % growth, replicate 1, read-out: Tg_72h_%Growth_Rep1",105%
same,percent parasite growth at 2 µg/mL,"[3]; 72 h, library screen at 2 μg/mL, 72 h, % growth, replicate 2, read-out: Tg_72h_%Growth_Rep2",86.3%
O=C(O)CCC(=O)OC[C@@H](NC(=O)C(Cl)Cl)[C@H](O)c1ccc([N+](=O)[O-])cc1 [Chloramphenicol succinate],activity at 2 µg/mL,[1]; [6],150%
same,activity at 2 µg/mL,[1]; [7],95.2%
same,activity at 2 µg/mL,[2]; [8],111%
same,activity at 2 µg/mL,[2]; [9],86.6%
same,percent parasite growth at 2 µg/mL,"[3]; 72 h, read-out: Tg_72h_%Growth_Rep1",79.4%
same,percent parasite growth at 2 µg/mL,"[3]; 72 h, read-out: Tg_72h_%Growth_Rep2",97.4%
COc1c(C[C@@H](C)OC(=O)Oc2ccc(O)cc2)c2c3c(C[C@@H](C)OC(=O)c4ccccc4)c(OC)c(=O)c4c(O)cc(OC)c(c5c(OC)cc(O)c(c1=O)c52)c43 [Calphostin C],activity at 2 µg/mL,[1]; [6],17%
same,activity at 2 µg/mL,[1]; [7],9.44%
same,activity at 2 µg/mL,[2]; [8],13.6%
same,activity at 2 µg/mL,[2]; [9],9.2%
same,percent parasite growth at 2 µg/mL,"[3]; T. gondii, 72 h, screen at 2 μg/mL, replicate 1, read-out: Tg_72h_%Growth_Rep1",1%
same,percent parasite growth at 2 µg/mL,"[3]; T. gondii, 72 h, screen at 2 μg/mL, replicate 2, read-out: Tg_72h_%Growth_Rep2",2.07%
"CCC[C@@H]1C[C@@H](C(=O)N[C@@H]([C@H]2O[C@H](SC)[C@H](OP(=O)(O)O)[C@@H](O)[C@H]2O)[C@H](C)Cl)N(C)C1 [Clindamycin 2-phosphate, reference compound]",2) Growth (%) at 120 h,[1],9.80%
same,3) Fold change (72 h/120 h),[1],6.9
same,Pf_120h_%Growth_Rep1,[1],15.54%
same,Pf_120h_%Growth_Rep2,[1],4.05%
same,1) Growth (%) at 72 h,[2],67.91%
same,Pf_72h_%Growth_Rep1,[2],73.78%
same,Pf_72h_%Growth_Rep2,[2],62.04%
same,Tg_72h_%Growth_Rep1,[3],25.11%
same,Tg_72h_%Growth_Rep2,[3],20.67%
CC[C@H]1CCC[C@H](O[C@H]2CC[C@H](N(C)C)[C@@H](C)O2)[C@@H](C)C(=O)C2=C[C@@H]3[C@@H](C=C[C@@H]4C[C@@H](O[C@@H]5O[C@@H](C)[C@H](OC)[C@@H](OC)[C@H]5OC)C[C@@H]34)[C@@H]2CC(=O)O1 [Spinosyn A],activity at 2 µg/mL,"[1]; 3D7, 120 h, P. falciparum, 120 h, parasite screen 2 μg/mL, % growth, replicate 1, read-out: Pf_120h_%Growth_Rep1",0.89%
same,activity at 2 µg/mL,"[1]; 3D7, 120 h, P. falciparum, 120 h, parasite screen 2 μg/mL, % growth, replicate 2, read-out: Pf_120h_%Growth_Rep2",-4.31%
same,activity at 2 µg/mL,"[2]; Plasmodium falciparum, 3D7, 72 h, P. falciparum, 72 h, parasite screen 2 μg/mL, % growth, replicate 1, read-out: Pf_72h_%Growth_Rep1",5.81%
same,activity at 2 µg/mL,"[2]; Plasmodium falciparum, 3D7, 72 h, P. falciparum, 72 h, parasite screen 2 μg/mL, % growth, replicate 2, read-out: Pf_72h_%Growth_Rep2",3.23%
same,IC50,"[2]; Plasmodium falciparum, 3D7, 72 h treatment, mean ± S.D., n ≥ 3, read-out: IC50 (μM), P. falciparum",> 1 µM
same,percent parasite growth at 2 µg/mL,"[3]; 72 h, T. gondii, 72 h, parasite screen 2 μg/mL, % growth, replicate 1, read-out: Tg_72h_%Growth_Rep1",56.8%
same,percent parasite growth at 2 µg/mL,"[3]; 72 h, T. gondii, 72 h, parasite screen 2 μg/mL, % growth, replicate 2, read-out: Tg_72h_%Growth_Rep2",95.1%
CCCCCC(=O)NC1CCOC1=O (stereo not shown) [BIA-H1495],Pf_120h_%Growth_Rep1,"[1]; P. falciparum 3D7, 120 h, library screen at 2 μg/mL, % growth, replicate 1",97.98%
same,Pf_120h_%Growth_Rep2,"[1]; P. falciparum 3D7, 120 h, library screen at 2 μg/mL, % growth, replicate 2",95.38%
same,Pf_72h_%Growth_Rep1,"[2]; P. falciparum 3D7, 72 h, library screen at 2 μg/mL, % growth, replicate 1",85.11%
same,Pf_72h_%Growth_Rep2,"[2]; P. falciparum 3D7, 72 h, library screen at 2 μg/mL, % growth, replicate 2",87.66%
same,Tg_72h_%Growth_Rep1,"[3]; T. gondii RH, 72 h, library screen at 2 μg/mL, % growth, replicate 1",133.00%
same,Tg_72h_%Growth_Rep2,"[3]; T. gondii RH, 72 h, library screen at 2 μg/mL, % growth, replicate 2",97.80%
